Laboratory results from paper PMC9127867, “Analysis of the β-Glucosidase Family Reveals Genes Involved in the Lignification of Stone Cells in Chinese White Pear (Pyrus bretschneideri Rehd.)” (Frontiers in Plant Science, 2022).

Biological target: T1, GST-PbBGLU1 (Pyrus x bretschneideri, UniProt Z9UO32JHD5)
T1 construct: full-length CDS in pGEX4T-1, N-terminal GST tag kept, E. coli BL21(DE3)
T1 sequence (Z9UO32JHD5 522-1019 limits assumed): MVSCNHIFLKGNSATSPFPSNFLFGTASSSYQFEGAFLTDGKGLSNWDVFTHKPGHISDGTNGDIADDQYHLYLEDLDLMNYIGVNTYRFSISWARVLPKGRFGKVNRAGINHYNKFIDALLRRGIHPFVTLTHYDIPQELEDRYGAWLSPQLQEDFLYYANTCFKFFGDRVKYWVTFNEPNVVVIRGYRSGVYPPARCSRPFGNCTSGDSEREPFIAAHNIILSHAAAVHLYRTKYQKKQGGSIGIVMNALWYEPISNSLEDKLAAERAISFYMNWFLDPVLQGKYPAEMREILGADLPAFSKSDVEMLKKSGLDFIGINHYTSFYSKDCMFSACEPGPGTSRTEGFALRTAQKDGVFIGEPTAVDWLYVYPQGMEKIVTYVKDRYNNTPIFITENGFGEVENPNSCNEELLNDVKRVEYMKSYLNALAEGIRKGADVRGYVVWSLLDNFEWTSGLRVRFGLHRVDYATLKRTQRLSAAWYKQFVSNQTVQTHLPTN
Assay: HPLC of product, double reciprocal plot
Type: biochemical
Settings: 35 °C, PBS pH 7.2–7.4, 50 mM MgSO4, 200 mM KCl, 0.1% β-mercaptoethanol
From the text: HPLC of product, double reciprocal plot on GST-PbBGLU1

Compound	Km
COc1cc(/C=C/CO)cc(OC)c1O[C@@H]1O[C@H](CO)[C@@H](O)[C@H](O)[C@H]1O [syringin]	101 ± 6.51 µM
COc1cc(/C=C/CO)ccc1O[C@@H]1O[C@H](CO)[C@@H](O)[C@H](O)[C@H]1O [coniferin]	103 ± 3.89 µM
